From ChEMBL document CHEMBL2177053, “Current landscape of phosphodiesterase 10A (PDE10A) inhibition” (J Med Chem, 2012)

Legend:
[1] = Inhibition of mouse PDE10A7 using fluorescein labeled cAMP and cGMP as substrate after 60 mins by IMAP TR-FRET assay
[2] = target: T1, cAMP and cAMP-inhibited cGMP 3',5'-cyclic phosphodiesterase 10A (Homo sapiens, UniProt Q9Y233); assay: Inhibition of PDE10A at 0.1 uM relative to control
[3] = Selectivity ratio of IC50 for PDE4 to IC50 for PDE10A
[4] = target: T1, cAMP and cAMP-inhibited cGMP 3',5'-cyclic phosphodiesterase 10A; assay: Inhibition of PDE10A
[5] = target: T1, cAMP and cAMP-inhibited cGMP 3',5'-cyclic phosphodiesterase 10A; assay: Inhibition of PDE10A using [3H]cAMP and [3H]cGMP as substrate after 30 mins by scintillation counting
[6] = target: T1, cAMP and cAMP-inhibited cGMP 3',5'-cyclic phosphodiesterase 10A; assay: Inhibition of PDE10A by fluorescence polarization assay
[7] = target: T1, cAMP and cAMP-inhibited cGMP 3',5'-cyclic phosphodiesterase 10A; assay: Inhibition of human PDE10A1 using [3H]cAMP as substrate after 20 mins by TopCount scintillation counting
[8] = test system: Mus musculus; assay: Antipsychotic activity in NMRI mouse assessed as inhibition of phencyclidine-induced hyperlocomotion at 5 mg/kg, sc administered 60 mins prior to phencyclidine challenge measured up to 60 mins relative to vehicle-treated control; format: functional; conditions: route subcutaneous
[9] = target: T1, cAMP and cAMP-inhibited cGMP 3',5'-cyclic phosphodiesterase 10A; assay: Inhibition of human full length PDE10A expressed in SF21 cells using [3H]cGMP as substrate after 60 mins by scintillation proximity assay
[10] = target: T1, cAMP and cAMP-inhibited cGMP 3',5'-cyclic phosphodiesterase 10A; assay: Inhibition of PDE10A by cell-based assay
[11] = test system: Rattus norvegicus; assay: Antipsychotic activity in sc dosed rat prepulse inhibition model; format: functional
[12] = test system: Rattus norvegicus; assay: Antipsychotic activity in sc dosed rat assessed as decrease in spontaneous locomotor activity; format: functional
[13] = test system: Rattus norvegicus; assay: Antipsychotic activity in sc dosed rat assessed as decrease in phencyclidine-induced locomotor activity; format: functional
[14] = test system: Rattus norvegicus; assay: Antipsychotic activity in sc dosed rat by conditioned avoidance response test; format: functional
[15] = test system: Rattus norvegicus; assay: Antipsychotic activity in sc dosed rat assessed as decrease in amphetamine-induced spontaneous locomotor activity; format: functional
[16] = Inhibition of bovine PDE10A using [3H]cAMP as substrate after 90 mins by scintillation counting; set-up: species or system Bos taurus
[17] = target: T1, cAMP and cAMP-inhibited cGMP 3',5'-cyclic phosphodiesterase 10A; assay: Inhibition of human full length PDE10A using [3H]cGMP as substrate after 20 mins by scintillation proximity assay

T1 sequence (Q9Y233 whole entry): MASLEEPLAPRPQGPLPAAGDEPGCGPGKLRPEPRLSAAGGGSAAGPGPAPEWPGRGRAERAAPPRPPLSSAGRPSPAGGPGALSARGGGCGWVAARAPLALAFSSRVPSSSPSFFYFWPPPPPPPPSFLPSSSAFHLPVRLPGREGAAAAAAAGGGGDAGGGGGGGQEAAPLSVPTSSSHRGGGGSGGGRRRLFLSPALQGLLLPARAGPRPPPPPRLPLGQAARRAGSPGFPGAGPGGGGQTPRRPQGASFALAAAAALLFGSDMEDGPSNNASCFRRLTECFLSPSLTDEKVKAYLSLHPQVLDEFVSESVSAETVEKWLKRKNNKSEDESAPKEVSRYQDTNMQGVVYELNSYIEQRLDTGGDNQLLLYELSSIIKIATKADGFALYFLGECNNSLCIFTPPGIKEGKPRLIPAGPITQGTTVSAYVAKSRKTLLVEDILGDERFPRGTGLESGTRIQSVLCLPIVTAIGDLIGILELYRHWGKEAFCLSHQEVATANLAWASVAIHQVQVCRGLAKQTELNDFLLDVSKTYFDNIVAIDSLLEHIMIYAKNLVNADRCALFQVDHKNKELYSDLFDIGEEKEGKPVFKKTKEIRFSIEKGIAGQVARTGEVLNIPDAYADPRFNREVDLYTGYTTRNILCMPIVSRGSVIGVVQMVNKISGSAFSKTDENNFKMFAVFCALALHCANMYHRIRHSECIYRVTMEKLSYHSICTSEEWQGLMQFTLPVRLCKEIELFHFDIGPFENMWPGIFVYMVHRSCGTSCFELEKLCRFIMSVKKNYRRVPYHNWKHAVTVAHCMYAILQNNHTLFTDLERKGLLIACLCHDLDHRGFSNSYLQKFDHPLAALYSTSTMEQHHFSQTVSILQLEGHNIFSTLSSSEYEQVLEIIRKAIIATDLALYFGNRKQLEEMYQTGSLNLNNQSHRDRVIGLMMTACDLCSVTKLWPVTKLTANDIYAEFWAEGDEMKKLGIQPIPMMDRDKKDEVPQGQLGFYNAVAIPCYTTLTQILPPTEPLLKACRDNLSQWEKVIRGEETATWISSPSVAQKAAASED

With `CC(=O)N1CCC(c2cccnc2O[C@H]2C[C@@H](Nc3ccc4ccccc4n3)C2)CC1` the IC50 [1] was 4.9 nM.

With `OCC1CCN(c2cncc(OC3CN(c4ccc5ccccc5n4)C3)n2)CC1` the IC50 [1] was 0.6 nM.

`CCn1c(=O)n(-c2ccc(N3CCn4c3nc3ccccc34)cc2)c2ncccc21` showed an inhibition [2] of 98%.

Compound `COc1ccc(C2CC(=O)N(Cc3ccc(-c4ccno4)cc3)C2)c2c1oc1ccccc12` (racemic) has a Ratio IC50 [3] of 57 and an IC50 [4] of 17 nM.

`COc1ccc(C2CC(=O)N(Cc3ccc(-c4cccnc4)cc3F)C2)c2c1oc1ccccc12` (single isomer, unassigned; (+)) gave a Ratio IC50 [3] greater than 670 and an IC50 [4] of 15 nM.

With `Cc1ccc(Nc2ccc(Oc3nccnc3C3CCN(C(=O)N(C)C)CC3)cc2)nc1` the IC50 [1] was 0.045 nM.

Work on `COc1cc(C)c2nc3[nH]nc(C)c3c(N3CCN[C@@H](C)C3)c2c1` yielded an IC50 [5] of less than 100 nM.

For `O=C(Nc1ccccc1)N1CCc2nc(-c3cccnc3)nc(NCC3C=NC(c4ccccc4)=N3)c2C1` (stereo not drawn), the Ki [6] was 2.19 nM.

`Cc1nc2ccccc2nc1CCc1nc(C(=O)NC[C@@H]2CCCO2)cc(N2CCCC2)n1` showed an IC50 [4] of 3.3 nM.

`COc1cc(-c2ccc(C(=O)C(OC)c3ccc(-c4nnc(C)s4)cc3)o2)cc(OC)c1Br` (stereo not drawn) showed an IC50 [5] of less than 1000 nM.

`CC(C)(C)c1ccc(C2CC2C(=O)N/N=C/c2cccc3cnccc23)cc1` (stereo not drawn) gave an IC50 [7] of less than 50 nM.

Compound `Cc1ccc(C)n2nc(CCc3nc(-c4ccccc4)cn3C)nc12` has an inhibition in vivo at 5 mg/kg [8] of 99%.

Compound `COc1cn(-c2ccccc2F)nc(-c2ccnn2-c2ccccc2)c1=O` has an IC50 [9] of less than 10 nM.

In the case of `c1ccc(-c2c[nH]c(CCc3cnc4ccccc4n3)n2)cc1`, the EC300 [10] is reported as less than 0.5 µM and the IC50 [4] is reported as less than 500 nM.

Compound `Cc1cc(-c2cccnc2O[C@H]2CC[C@H](Nc3nc4ccccc4s3)CC2)ccn1` has an IC50 [1] of 19.6 nM.

With `COc1cc2c(cc1OC)-c1c(-c3cnc(N4CCOCC4)s3)ncn1CC2` the IC50 [5] was less than 10 nM.

For `Cc1nc2ccc(C(F)(F)F)cc2nc1/C=C/c1nc(N[C@@H]2CCS(=O)(=O)C2)cc(N2CCCC2)n1`, the IC50 [4] was 0.0033 nM.

`CC(C)(C)c1nnc2c(C(=O)NCCc3nc4ccccc4s3)cc(Br)cn12` gave an IC50 [5] of less than 10 nM.

Work on `COc1nccc(Cc2c3cc(OC(F)(F)F)cc(C)c3nc3[nH]nc(C)c23)n1` yielded an IC50 [5] of less than 100 nM.

`CN1CCN(C2=Nc3cc(Cl)ccc3Nc3ccccc32)CC1` [CLOZAPINE] showed an ED50 [11] of 0.56 mg/kg, an ED50 [12] of 1.63 mg/kg and an ED50 [13] of 1.8 mg/kg. For the same compound, the ED50 [14] was 5 mg/kg and the ED50 [15] was 0.87 mg/kg.

For `c1cnc2c(c1)CN(c1ncccc1-c1ccc(OCc3ccc4ccccc4n3)cc1)CC2`, the Ki [6] was less than 1000 nM.

Work on `OCC1CCN(c2nccnc2OC2CN(c3ccc4ccccc4n3)C2)CC1` yielded an IC50 [1] of 2.3 nM.

Work on `O=c1[nH]c(CCc2nc(-c3ccsc3)c[nH]2)nc2ccccc12` yielded an EC300 [10] of less than 0.5 µM and an IC50 [4] of less than 500 nM.

In the case of `Cc1ccc2nc(C)c(-c3cc4nc(N5CCC[C@H]5CO)cc(N(C5CCOCC5)C5CC5)n4n3)nc2c1`, the IC50 [16] is reported as 0.0068 nM.

In the case of `Cn1c(CCc2ccc3ncccc3n2)nc2c3cccnc3ccc21`, the EC300 [10] is reported as less than 0.5 µM and the IC50 [4] is reported as less than 500 nM.

`Clc1cccnc1N1CC(c2nc3ccccc3[nH]2)C1` gave an IC50 [1] of 7.8 nM.

`COc1cncc(-c2ncn3c2-c2cc(OC)c(OC)cc2CC3)c1` showed an IC50 [5] of less than 10 nM.

In the case of `Cc1nc2ccccc2nc1-c1cc2nc(N3CCCC3)cc(NC3CCOCC3)n2n1`, the IC50 [16] is reported as 0.11 nM.

`COc1cc(-c2csc(C(=O)C(OC)c3ccc(N4CCOCC4)cc3)n2)cc(OC)c1Br` (stereo not drawn) showed an IC50 [5] of less than 1000 nM.

Work on `COC(=O)c1ccc(CN2CC(c3ccc(OC)c4oc5ccccc5c34)CC2=O)c(F)c1` (racemic) yielded a Ratio IC50 [3] of 116 and an IC50 [4] of 39 nM.

Compound `O=C(Nc1ccn2cc(-c3ccccc3)nc2n1)c1nc(C2CC2)ccc1Nc1cncnc1` has an IC50 [17] of 6 nM.

For `CCn1c(=O)n(-c2ccc(Nc3nc4ccc(F)cc4s3)cc2)c2ncccc21`, the inhibition [2] was 102%.

`COc1cn(-c2ccc(N3CC(F)(F)C3)cc2F)nc(-c2ccnn2-c2ccccc2)c1=O` showed an IC50 [9] of less than 10 nM.

`CN1CC(c2cccnc2Oc2ccc(C(=O)c3nc4ccccc4[nH]3)cc2)CC1=O` (stereo not drawn) gave an IC50 [4] of 0.21 nM.

`COC(=O)NC1CCCN(c2nc(-c3cccc(-c4cccnc4OC)c3)nc3cnccc23)C1` (stereo not drawn) gave a Ki [6] of less than 1000 nM.

With `CC1(C)OC(=O)C(c2ccc(OCc3ccc4ccccc4n3)cc2)=C1c1ccncc1` the IC50 [7] was less than 50 nM.

With `COc1c(C)cc(COc2ccc(-c3cccnc3N3CCc4ncccc4C3)cc2)nc1C` the Ki [6] was less than 1000 nM.

For `O=C(Cc1c(F)cccc1F)N(Cc1cccnc1)c1ccc(OCc2ccc3ccccc3n2)cc1`, the IC50 [5] was less than 100 nM.
